Experimental data: paper PMC6923474 (Scientific Reports, 2019)
Entries after “also recorded” stand apart in the source; their conditions may differ. Like-named read-outs stand apart in the source and are kept apart here.

Key:
NMDARs = conditions: cited from earlier work
GluN1/GluN2A NMDARs = system: GluN1/GluN2A NMDARs; parameters: method as in PMID 28877967; conditions: Ca2+-dependent manner; not GluN1/GluN2B receptors; cited from earlier work
NMDA receptors (NMDARs) = assay: Whole-cell patch-clamp of NMDA-activated currents in primary cultures of cortical neurons; format: cell-based, rat
Protocol: All manipulations on animals were performed in accordance with the guide of the Federation for Laboratory Animal Science Associations and were approved by the Animal Care and Use Committees of Sechenov Institute. Briefly, 16 days pregnant Wistar rats (14 female rats used in this study, supplied by the Sechenov Institute Animal Facility) were placed in a plastic box connected to a CO2 tank by a tube and then sacrificed by 1 min CO2 inhalation. Fetuses were removed and then primary cultures of rat cortical neurons were prepared using conventional procedures as described earlier[27],[66]. Neurons were grown in Neurobasal culture medium supplemented with B-27 (Gibco-Invitrogen, UK) on glass coverslips coated with poly-D-lysine and were used for experiments after 10–15 days in culture[66],[67].
Whole-cell currents were recorded from cultured rat cortical neurons using a MultiClamp 700B patch-clamp amplifier with Digidata 1440 A controlled by pClamp v10.2 software (Molecular Devices). Recordings were 8-order low-pass filtered at 200 Hz and the acquisition rate was 20000 samples per second. Solution exchange was performed by means of a fast solution application system as described earlier. Unless otherwise specified, the external bathing solution contained (in mM): 140 NaCl; 2.8 KCl; 1.0 CaCl2; 10 HEPES, at pH 7.2–7.4, osmolarity 310 mOsm. The intrapipette solution contained (in mM): 120 CsF, 10 CsCl, 10 EGTA, and 10 HEPES, osmolarity 300 mOsm[14], with pH adjusted to 7.4 with CsOH. Patch pipettes of 2–4 MΩ were pulled from Sutter BF150-89-10 borosilicate capillaries. Experiments were performed at 23–25 °C. Under control conditions, neurons were voltage clamped at −70 mV. Data are reported without corrections for liquid junction potential, which was measured as −11 mV. To activate NMDARs, 100 µM NMDA and 30 µM glycine were co-applied. Some experiments were performed on neurons loaded with BAPTA. To load BAPTA, cortical neuron cultures were incubated in bathing solution containing 10 µM BAPTA-AM for 2 hours.
Whole-cell membrane currents activated by NMDA were measured at steady state. The fraction of blocked current was calculated as 1 − Ib/Ic, where Ic is the amplitude of current activated by agonists and Ib is the amplitude of current activated by agonists in the presence of blocker.
Amplitudes of currents measured in the presence of blocker were normalized to maximal current response in control (Ic). […]
The obtained values were fitted with the Woodhull equation[36]:6 IC50(Vm)=IC50(0mV)⋅exp(VmzδF/RT) where IC50(0 mV) and δ were set as free parameters. […] For Faraday constant, gas constant and room temperature of 25 °C the RT/F ≈ 25.7 mV.
The rise time of currents activated by the testing NMDA + Gly application in trapping channel block experiments was fit in ClampFit (pClamp, Axon Instruments) using the double exponential function:7 I=I1·exp(−t/τ1)+I2⋅exp(−t/τ2)−C where I1 and I2 are amplitudes of the exponential and τ1 and τ2 are time constants of the exponential and C equals I1 + I2 + Ib.

[1] = cited from earlier work

CC12CC3CC(C)(C1)CC(N)(C3)C2 [memantine]
δ, fraction of the membrane electric field (NMDARs; by different estimates): 0.65–0.91
effect on recovery from desensitization (GluN1/GluN2A NMDARs): slows the rate of recovery from desensitization of GluN1/GluN2A NMDARs

CNC1(c2ccccc2Cl)CCCCC1=O (centres unmarked) [ketamine]
sensitivity of NMDAR block to external [Ca2+] (NMDARs): no sensitivity to changes in external [Ca^2+]
δ, fraction of the membrane electric field (NMDARs): 0.55

CN(C)CCC=C1c2ccccc2CCc2ccccc21 [ATL, amitriptyline]
concentrations showing voltage-dependent open-channel block of NMDARs (NMDA receptors (NMDARs)): > 70 µM
decrease of IC50 per 1 mM increase of external [Ca2+] (NMDA receptors (NMDARs)): roughly 5 fold
voltage dependence of block of NMDAR currents (NMDA receptors (NMDARs); 10 μM ATL, 1 mM Ca2+, −70 mV vs −30 mV): voltage dependence was not observed; also recorded: voltage-independent
Ca2+ dependence of inhibition of NMDAR currents (NMDA receptors (NMDARs); 10 μM ATL, −70 mV, 2 mM vs 0.25 mM Ca2+): far more pronounced in 2 mM Ca^2+- than in 0.25 Ca^2+- containing media
voltage dependence of block of NMDAR currents (NMDA receptors (NMDARs); 20 μM ATL, 2 mM Ca2+, −40 mV to +40 mV): did not find any voltage dependence
effect on closed NMDARs (ATL applied prior to NMDA) (NMDA receptors (NMDARs); 100 μM ATL, 0.25 mM or 2 mM Ca2+, −70 mV): did not significantly affect currents activated by NMDA
voltage dependence of block of NMDAR currents (NMDA receptors (NMDARs); 100 μM ATL, 1 mM Ca2+, −70 mV vs −30 mV): depended on membrane voltage; also recorded: voltage-dependent
type of open-channel block (trapping protocol) (NMDA receptors (NMDARs); 200 µM ATL, 0.25 mM Ca2+, −70 mV): did not cause tail currents; also recorded: partial trapping
τs, slow rise time constant of test current (ATL unblock) (NMDA receptors (NMDARs); 200 µM ATL, washout delay 0.5 s, −70 mV, 0.25 mM Ca2+): 11 ± 3.2 s
τs, slow rise time constant of test current (ATL unblock) (NMDA receptors (NMDARs); 200 µM ATL, washout delay 1 s, −70 mV, 0.25 mM Ca2+): 13 ± 5.7 s
τs, slow rise time constant of test current (ATL unblock) (NMDA receptors (NMDARs); 200 µM ATL, washout delay 2 s, −70 mV, 0.25 mM Ca2+): 13.2 ± 4.0 s
τs, slow rise time constant of test current (ATL unblock) (NMDA receptors (NMDARs); 200 µM ATL, washout delay 4 s, −70 mV, 0.25 mM Ca2+): 15 ± 2.9 s
voltage shift giving an e-fold change of IC50 (NMDA receptors (NMDARs); 0.25 mM Ca2+): 50 mV
δ, fraction of the membrane electric field (Woodhull model) (NMDA receptors (NMDARs); 0.25 mM Ca2+, Eq. 6): 0.51
fraction of ATL inhibition of NMDAR currents (1-Ib/Ic) (NMDA receptors (NMDARs); ATL 10 μM, −30 mV, [Ca2+] 0.25 mM): 0.12 ± 0.05
fraction of ATL inhibition of NMDAR currents (1-Ib/Ic) (NMDA receptors (NMDARs); ATL 10 μM, −30 mV, [Ca2+] 2 mM): 0.30 ± 0.05
fraction of ATL inhibition of NMDAR currents (1-Ib/Ic) (NMDA receptors (NMDARs); ATL 10 μM, −70 mV, [Ca2+] 0.25 mM): 0.13 ± 0.06
fraction of ATL inhibition of NMDAR currents (1-Ib/Ic) (NMDA receptors (NMDARs); ATL 10 μM, −70 mV, [Ca2+] 2 mM): 0.42 ± 0.04
fraction of ATL inhibition of NMDAR currents (1-Ib/Ic) (NMDA receptors (NMDARs); ATL 100 μM, −30 mV, [Ca2+] 0.25 mM): 0.40 ± 0.07
fraction of ATL inhibition of NMDAR currents (1-Ib/Ic) (NMDA receptors (NMDARs); ATL 100 μM, −30 mV, [Ca2+] 2 mM): 0.35 ± 0.04
fraction of ATL inhibition of NMDAR currents (1-Ib/Ic) (NMDA receptors (NMDARs); ATL 100 μM, −70 mV, [Ca2+] 0.25 mM): 0.79 ± 0.05
fraction of ATL inhibition of NMDAR currents (1-Ib/Ic) (NMDA receptors (NMDARs); ATL 100 μM, −70 mV, [Ca2+] 2 mM): 0.79 ± 0.03
IC50 (NMDA receptors (NMDARs); [Ca2+] 2–4 mM, read-out: IC50 values at physiological extracellular [Ca2+]): 0.7 to 7 µM
fraction of ATL inhibition of NMDAR currents (1-Ib/Ic) (NMDA receptors (NMDARs); co-application of agonists and 100 μM ATL, −70 mV, [Ca2+] 0.25 mM): 0.85 ± 0.06
fraction of ATL inhibition of NMDAR currents (1-Ib/Ic) (NMDA receptors (NMDARs); co-application of agonists and 100 μM ATL, −70 mV, [Ca2+] 2 mM): 0.85 ± 0.05
IC50 (NMDA receptors (NMDARs); extrapolated to 0 mM Ca2+, −70 mV, read-out: IC50 at [Ca2+] = 0, single exponential approximation): 91 µM
IC50 (NMDA receptors (NMDARs); extrapolated to 0 mV, 0.25 mM Ca2+, read-out: IC50 (0 mV), fit with Woodhull equation (Eq. 6)): 220 µM
[Ca2+] shift giving an e-fold change of IC50 (b value), optimized (NMDA receptors (NMDARs); optimized by fitting all data with IC50(Vm,[Ca2+]) equation): 690 µM
fraction of ATL inhibition of NMDAR currents (1-Ib/Ic) (NMDA receptors (NMDARs); pre-application of 100 μM ATL, −70 mV, [Ca2+] 0.25 mM): 0.12 ± 0.01
fraction of ATL inhibition of NMDAR currents (1-Ib/Ic) (NMDA receptors (NMDARs); pre-application of 100 μM ATL, −70 mV, [Ca2+] 2 mM): 0.17 ± 0.03
IC50 (NMDA receptors (NMDARs); read-out: IC50 for ATL inhibition of NMDAR currents, −30 mV, 0.25 mM Ca2+): 129 µM
IC50 (NMDA receptors (NMDARs); read-out: IC50 for ATL inhibition of NMDAR currents, −70 mV, 0.25 mM Ca2+ in bathing solution, 100 μM NMDA + 30 μM Gly): 63 ± 9.3 µM
IC50 (NMDA receptors (NMDARs); read-out: IC50 for ATL inhibition of NMDAR currents, −70 mV, 0.5 mM Ca2+, 100 μM NMDA + 30 μM Gly): 37.6 ± 7.7 µM
IC50 (NMDA receptors (NMDARs); read-out: IC50 for ATL inhibition of NMDAR currents, −70 mV, 1 mM Ca2+, BAPTA-loaded neurons): 106 ± 9.5 µM
IC50 (NMDA receptors (NMDARs); read-out: IC50 for ATL inhibition of NMDAR currents, −70 mV, 1 mM Ca2+, control (intact) neurons): 21.6 ± 8.7 µM
IC50 (NMDA receptors (NMDARs); read-out: IC50 for ATL inhibition of NMDAR currents, −70 mV, 2 mM Ca2+): 4.9 ± 1 µM
IC50 (NMDA receptors (NMDARs); read-out: IC50 for ATL inhibition of NMDAR currents, −70 mV, 4 mM Ca2+): 0.72 µM
IC50 (NMDA receptors (NMDARs); read-out: IC50 for ATL inhibition of NMDAR currents, −100 mV, 0.25 mM Ca2+): 34.2 ± 9.8 µM
[Ca2+] shift giving an e-fold change of IC50 (b value) (NMDA receptors (NMDARs); single exponential fit of IC50 vs [Ca2+], −70 mV): 630 µM
Hill coefficient h (NMDA receptors (NMDARs); −70 mV, 0.25 mM Ca2+): 1.4 ± 0.1
rate constant of binding (kon) (NMDA receptors (NMDARs); −70 mV, 0.25 mM Ca2+, Eq. 3): 1600 ± 90 M⁻¹ s⁻¹
rate constant of dissociation (koff) (NMDA receptors (NMDARs); −70 mV, 0.25 mM Ca2+, Eq. 4): 0.204 ± 0.005 s⁻¹
Kd (NMDA receptors (NMDARs); −70 mV, 0.25 mM Ca2+, Eq. 5, read-out: apparent equilibrium dissociation constant (Kd = koff/kon)): 128 ± 7.8 µM
Hill coefficient h (NMDA receptors (NMDARs); −70 mV, 0.5 mM Ca2+): 1.5 ± 0.1
Hill coefficient h (NMDA receptors (NMDARs); −70 mV, 1 mM Ca2+): 1.6 ± 0.5
Hill coefficient h (NMDA receptors (NMDARs); −70 mV, 2 mM Ca2+): 1.2 ± 0.1
Hill coefficient h (NMDA receptors (NMDARs); −70 mV, 4 mM Ca2+): 1.5 ± 0.2
ATL concentrations required for the NMDAR channel block (NMDARs): 15 to 60 µM
therapeutic window for ATL concentrations in the blood plasma ([1]; blood plasma): 0.3 to 1 µM
ATL concentration in brain tissue ([1]; brain tissue): ≤ 10 µM

NC12CC3CC(CC(C3)C1)C2 [amantadine]
δ, fraction of the membrane electric field (NMDARs): 0.72

Br.Br.NCCCCCNCC12CC3CC(CC(C3)C1)C2 [IEM-1754, N-(tricyclo[3.3.1.13,7]dec-1-ylmethyl)-1,5-pentanediamine dihydrobromide]
Ca2+ dependence of block of NMDA-activated currents (NMDA receptors (NMDARs); 10 μM IEM-1754, −70 mV, 2 mM vs 0.25 mM Ca2+): resistant to a 4-fold increase of [Ca^2+]
